Structures can show the parent of a compound that is named as a salt.
System: HiBiT-HSD17β13 fusion protein (N-terminal HiBiT-tagged HSD17β13 isoform D) in Huh7 HiBiT-HSD17β13 OE cells
Assay: Whole-cell Huh7-HSD17B13 HiBiT assay (degrader potency and maximal efficacy, luminescence readout)
Type: cell-based, human
Conditions: 24 hour incubation, geometric mean, * = geometric mean for all forms tested (parent and salt forms); for DC50: read-out: Huh7_HIBIT-HSD17β13_DC50 GMean DC50; for Huh7_HIBIT-HSD17β13_DC50 GMean Asymptote Maximum: max. concentration 1 μM
Summary of the method: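 Huh7 cells stably overexpressing N-terminal HiBiT-tagged HSD17β13 isoform D, clone matched to primary hepatocyte expression, were exposed to an 11-point, 1 in 3.162 dilution series (top 1 μM final) for 24 h at 37° C. Lytic HiBiT luminescence was normalised to DMSO and parental-cell controls; DC50 from four-parameter logistic fit, with CellTiter-Glo counter screen.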

DC50 | Structure (SMILES) | Huh7_HIBIT-HSD17β13_DC50 GMean Asymptote Maximum
0.4 nM | Cn1c(=O)n(C2CCC(=O)NC2=O)c2ccc(CCCN3CCN(c4ccc(-c5ccc6cn([C@H]7CC[C@H](CNC(=O)c8cc(F)c(O)c(F)c8F)CC7)nc6c5)cn4)CC3)cc21 (mixture of isomers) [Example 92, N-{[(1r,4r)-4-(6-{6-[4-(3-{1-[(3RS)-2,6-dioxopiperidin-3-yl]-3-methyl-2-oxo-2,3-dihydro-1H-benzimidazol-5-yl}propyl)piperazin-1-yl]pyridin-3-yl}-2H-indazol-2-yl)cyclohexyl]methyl}-2,3,5-trifluoro-4-hydroxybenzamide] | 87%
0.42 nM | Cn1c(=O)n(C2CCC(=O)NC2=O)c2ccc(CCCN3CCN(c4ccc5nn(C6CCC(CNC(=O)c7cc(F)c(O)c(F)c7F)CC6)cc5n4)CC3)cc21.O=CO (racemic) [Example 16, N-{[(1r,4r)-4-{5-[4-(3-{1-[(3RS)-2,6-Dioxopiperidin-3-yl]-3-methyl-2-oxo-2,3-dihydro-1H-benzimidazol-5-yl}propyl)piperazin-1-yl]-2H-pyrazolo[4,3-b]pyridin-2-yl}cyclohexyl]methyl}-2,3,5-trifluoro-4-hydroxybenzamide, formate salt] | 82%
0.95 nM | Cn1c(=O)n(C2CCC(=O)NC2=O)c2ccc(CCN3CCOC4(C3)CN(c3ccc5cn([C@H]6CC[C@H](CNC(=O)c7cc(F)c(O)c(F)c7F)CC6)nc5c3)C4)cc21 (mixture of isomers) [Example 117, N-{[(1r,4r)-4-{6-[8-(2-{1-[(3RS)-2,6-dioxopiperidin-3-yl]-3-methyl-2-oxo-2,3-dihydro-1H-benzimidazol-5-yl}ethyl)-5-oxa-2,8-diazaspiro[3.5]nonan-2-yl]-2H-indazol-2-yl}cyclohexyl]methyl}-2,3,5-trifluoro-4-hydroxybenzamide, trifluoroacetate salt] | 79%
3.7 nM | Cc1ccc(C(=O)N2CCC(CN3CCN(c4ccc(-c5ccc6cn([C@H]7CC[C@H](CNC(=O)c8cc(F)c(O)c(F)c8F)CC7)nc6c5)nn4)CC3)CC2)cc1N1CCC(=O)NC1=O [Example 49, N-{[(1r,4r)-4-(6-{6-[4-({1-[3-(2,4-dioxo-1,3-diazinan-1-yl)-4-methylbenzoyl]piperidin-4-yl}methyl)piperazin-1-yl]pyridazin-3-yl}-2H-indazol-2-yl)cyclohexyl]methyl}-2,3,5-trifluoro-4-hydroxybenzamide, trifluoroacetate salt] | 82%
2.6 nM | Cc1ccc(C(=O)N2CCC(CN3CCN(c4ncc(-c5ccc6cn(C78CCC(CNC(=O)c9cc(F)c(O)c(F)c9F)(CC7)CC8)nc6c5)cn4)CC3)CC2)cc1N1CCC(=O)NC1=O [Example 114, N-{[4-(6-{2-[4-({1-[3-(2,4-dioxo-1,3-diazinan-1-yl)-4-methylbenzoyl]piperidin-4-yl}methyl)piperazin-1-yl]pyrimidin-5-yl}-2H-indazol-2-yl)bicyclo[2.2.2]octan-1-yl]methyl}-2,3,5-trifluoro-4-hydroxybenzamide] | 77%
1 nM | Cc1ccc(C(=O)N2CCN(C3COC4(CCN(c5ncc(-c6ccc7cn([C@H]8CC[C@H](CNC(=O)c9cc(F)c(O)c(F)c9F)CC8)nc7c6)cn5)CC4)C3)CC2)cc1N1CCC(=O)NC1=O (stereo partly drawn) [Example 59, N-{[(1r,4r)-4-{6-[2-(3-{4-[3-(2,4-dioxo-1,3-diazinan-1-yl)-4-methylbenzoyl]piperazin-1-yl}-1-oxa-8-azaspiro[4.5]decan-8-yl)pyrimidin-5-yl]-2H-indazol-2-yl}cyclohexyl]methyl}-2,3,5-trifluoro-4-hydroxybenzamide, trifluoroacetate salt] | 80%
1.5 nM | Cc1ccc(C(=O)N2CCC3(CCN(c4ncc(-c5ccc6cn([C@H]7CC[C@H](CNC(=O)c8cc(F)c(O)c(F)c8F)CC7)nc6c5)cn4)CC3)C2)cc1N1CCC(=O)NC1=O [Example 58, N-({(1r,4r)-4-[6-(2-{2-[3-(2,4-dioxo-1,3-diazinan-1-yl)-4-methylbenzoyl]-2,8-diazaspiro[4.5]decan-8-yl}pyrimidin-5-yl)-2H-indazol-2-yl]cyclohexyl}methyl)-2,3,5-trifluoro-4-hydroxybenzamide, trifluoroacetate salt] | 73%
0.16 nM | Cn1c(=O)n(C2CCC(=O)NC2=O)c2ccc(CCCN3CCN(c4cnc(-c5nc([C@]67CC[C@](CNC(=O)c8cc(F)c(O)c(F)c8F)(CC6)CC7)no5)cn4)CC3)cc21 (mixture of isomers) [Example 69, N-{[4-(5-{5-[4-(3-{1-[(3RS)-2,6-dioxopiperidin-3-yl]-3-methyl-2-oxo-2,3-dihydro-1H-benzimidazol-5-yl}propyl)piperazin-1-yl]pyrazin-2-yl}-1,2,4-oxadiazol-3-yl)bicyclo[2.2.2]octan-1-yl]methyl}-2,3,5-trifluoro-4-hydroxybenzamide, trifluoroacetate salt] | 88%
1.4 nM | Cn1c(=O)n(C2CCC(=O)NC2=O)c2ccc(C3CC4(CCN(c5ncc(-c6ccc7cn([C@H]8CC[C@H](CNC(=O)c9cc(F)c(O)c(F)c9F)CC8)nc7c6)cn5)CC4)C3)cc21 (mixture of isomers) [Example 80, N-{[(1r,4r)-4-{6-[2-(2-{1-[(3RS)-2,6-dioxopiperidin-3-yl]-3-methyl-2-oxo-2,3-dihydro-1H-benzimidazol-5-yl}-7-azaspiro[3.5]nonan-7-yl)pyrimidin-5-yl]-2H-indazol-2-yl}cyclohexyl]methyl}-2,3,5-trifluoro-4-hydroxybenzamide, trifluoroacetate salt] | 84%
2.9 nM | Cn1c(=O)n(C2CCC(=O)NC2=O)c2ccc(CCCN3C[C@H]4CN(c5ccc6cn([C@H]7CC[C@H](CNC(=O)c8cc(F)c(O)c(F)c8F)CC7)nc6c5)C[C@@H]4C3)cc21 (mixture of isomers) [Example 118, N-{[(1r,4r)-4-{6-[(3aS,6aS)-5-(3-{1-[(3RS)-2,6-dioxopiperidin-3-yl]-3-methyl-2-oxo-2,3-dihydro-1H-benzimidazol-5-yl}propyl)hexahydropyrrolo[3,4-c]pyrrol-2(1H)-yl]-2H-indazol-2-yl}cyclohexyl]methyl}-2,3,5-trifluoro-4-hydroxybenzamide, trifluoroacetate salt] | 78%
2.2 nM | Cn1c(=O)n(C2CCC(=O)NC2=O)c2ccc(CCCN3CCn4cc(-c5ccc6cn([C@H]7CC[C@H](CNC(=O)c8cc(F)c(O)c(F)c8F)CC7)nc6c5)nc4C3)cc21 (mixture of isomers) [Example 100, N-{[(1r,4r)-4-{6-[7-(3-{1-[(3RS)-2,6-dioxopiperidin-3-yl]-3-methyl-2-oxo-2,3-dihydro-1H-benzimidazol-5-yl}propyl)-5,6,7,8-tetrahydroimidazo[1,2-a]pyrazin-2-yl]-2H-indazol-2-yl}cyclohexyl]methyl}-2,3,5-trifluoro-4-hydroxybenzamide, formate salt] | 84%
0.24 nM | Cn1c(=O)n(C2CCC(=O)NC2=O)c2ccc(CCCN3CCN(c4ncc(-c5ccc6cn([C@]78CC[C@](CNC(=O)c9cc(F)c(O)c(F)c9F)(CC7)CC8)nc6c5)cn4)CC3)cc21 (mixture of isomers) [Example 95, N-{[4-(6-{2-[4-(3-{1-[(3RS)-2,6-dioxopiperidin-3-yl]-3-methyl-2-oxo-2,3-dihydro-1H-benzimidazol-5-yl}propyl)piperazin-1-yl]pyrimidin-5-yl}-2H-indazol-2-yl)bicyclo[2.2.2]octan-1-yl]methyl}-2,3,5-trifluoro-4-hydroxybenzamide, trifluoroacetate salt] | 80%
0.2 nM | Cn1c(=O)n(C2CCC(=O)NC2=O)c2ccc(CCCN3Cc4cc(-c5ccc6cn([C@H]7CC[C@H](CNC(=O)c8cc(F)c(O)c(F)c8F)CC7)nc6c5)cnc4C3)cc21 (mixture of isomers) [Example 116, N-{[(1r,4r)-4-{6-[6-(3-{1-[(3RS)-2,6-dioxopiperidin-3-yl]-3-methyl-2-oxo-2,3-dihydro-1H-benzimidazol-5-yl}propyl)-6,7-dihydro-5H-pyrrolo[3,4-b]pyridin-3-yl]-2H-indazol-2-yl}cyclohexyl]methyl}-2,3,5-trifluoro-4-hydroxybenzamide, trifluoroacetate salt] | 88%
1.5 nM | Cn1c(=O)n(C2CCC(=O)NC2=O)c2ccc(CCCN3C[C@@H]4CCN(c5ccc6cn([C@H]7CC[C@H](CNC(=O)c8cc(F)c(O)c(F)c8F)CC7)nc6c5)C[C@@H]4C3)cc21 (mixture of isomers) [Example 102, N-{[(1r,4r)-4-{6-[(3aS,7aR)-2-(3-{1-[(3RS)-2,6-dioxopiperidin-3-yl]-3-methyl-2-oxo-2,3-dihydro-1H-benzimidazol-5-yl}propyl)octahydro-5H-pyrrolo[3,4-c]pyridin-5-yl]-2H-indazol-2-yl}cyclohexyl]methyl}-2,3,5-trifluoro-4-hydroxybenzamide, formate salt] | 74%
0.2 nM | Cn1c(=O)n(C2CCC(=O)NC2=O)c2ccc(CCCN3CCN(c4nccc(-c5nc([C@]67CC[C@](CNC(=O)c8cc(F)c(O)c(F)c8F)(CC6)CC7)no5)n4)CC3)cc21 (mixture of isomers) [Example 121, formate salt] | 85%
